Columns and labels:
ORF7b = biological target: T1, ORF7b (Severe acute respiratory syndrome coronavirus 2, UniProt P0DTD8)
T1 construct: gene 7b

SARS-CoV-2 Protein E = SARS-CoV-2 Protein E (Severe acute respiratory syndrome coronavirus 2, UniProt P0DTC4); assay: two-electrode voltage clamp, X. laevis oocytes; conditions: read-out: % block at 10 μM
SARS-CoV-1 Protein E = SARS-CoV-1 Protein E (Severe acute respiratory syndrome-related coronavirus, UniProt P59637); type: cell-based
Chain of SARS-CoV-1 Protein E (P59637 whole entry, looked up): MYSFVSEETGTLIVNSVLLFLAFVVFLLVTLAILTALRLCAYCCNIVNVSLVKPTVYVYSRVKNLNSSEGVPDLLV

Chain of SARS-CoV-2 Protein E (P0DTC4 whole entry): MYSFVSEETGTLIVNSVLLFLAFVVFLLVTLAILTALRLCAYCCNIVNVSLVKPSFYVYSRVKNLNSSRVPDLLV
T1 sequence (P0DTD8 whole entry): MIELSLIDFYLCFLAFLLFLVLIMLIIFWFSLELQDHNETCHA

SMILES	% reduction in current at 10 μM (ORF7b) [%]	inhibition at 10 µM (SARS-CoV-2 Protein E) [%]	% block (SARS-CoV-1 Protein E)
Cc1cc(O)c2c(c1)C(=O)c1cc(O)cc(O)c1C2=O [emodin]	79	60	HMA and emodin blocked the Protein E ion channels from both SARS-CoV-1 and -2
C1C2CC3CC1CC(C2)C3 [adamantane]			adamantane that also blocked Protein E from SARS-CoV-1, but not that of SARS-CoV-2
NC12CC3CC(CC(C3)C1)C2 [amantadine]		77	
c1ccc2c(c1)Cc1ccccc1O2 [xanthene]	47	80	
N=C(N)NC(=O)c1nc(Cl)c(N2CCCCCC2)nc1N [hexamethylene-amiloride]		50	HMA and emodin blocked the Protein E ion channels from both SARS-CoV-1 and -2

Source: publication PMC8636635 (Communications Biology, 2021)
